The supplement of paper PMC7224384

Assays:
MDA-MB-453 [1] = assay: drug sensitivity score (DSS), single agent (DSS (weighted AUC score)); higher = more sensitive (stronger viability decrease); extreme values may be limits of the assay; conditions: BLU9931 0 nM; 72 h
How it was run: (§1)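 Each 384-well plate held compounds from the FIMM Oncology set, predispensed in singlicate at five 10-fold dilutions spanning a 10,000-fold range, and each well then received 2000 MDA-MB-453 cells in medium with or without an FGFR4 inhibitor at 100 nM final. Plates stayed at 37 °C, 5% CO2 for 72 h, after which cellular ATP was measured with CellTiterGlo 2.0. Readings were converted per plate into percent viability against control wells, and the drug sensitivity score was taken as a weighted area under a four-parameter logistic fit.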

MDA-MB-453 [2] = assay: drug sensitivity score (DSS), in combination with BLU9931 (DSS (weighted AUC score)); higher = more sensitive (stronger viability decrease); extreme values may be limits of the assay; conditions: BLU9931 100 nM; 72 h
How it was run: as §1

Row | Structure (SMILES) | drug sensitivity score (MDA-MB-453 [1]) | drug sensitivity score (MDA-MB-453 [2])
1 | COc1cc(CCc2cc(NC(=O)c3ccc(N4CC(C)NC(C)C4)cc3)n[nH]2)cc(OC)c1 (centres undefined) [AZD4547] | 0.3 | 0
2 | C[C@H]1O[C@@H](O[C@H]2[C@@H](O)C[C@H](O[C@H]3[C@@H](O)C[C@H](O[C@H]4CC[C@@]5(C)[C@H](CC[C@@H]6[C@@H]5C[C@@H](O)[C@]5(C)[C@@H](C7=CC(=O)OC7)CC[C@]65O)C4)O[C@@H]3C)O[C@@H]2C)C[C@H](O)[C@@H]1O [Digoxin] | 8.2 | 10.6
3 | CC(=O)c1c(C)c2cnc(Nc3ccc(N4CCNCC4)cn3)nc2n(C2CCCC2)c1=O [Palbociclib] | 2.5 | 4.8
4 | O=c1[nH]c(=O)n([C@H]2C[C@H](O)[C@@H](CO)O2)cc1F [Floxuridine] | 4.9 | 2
5 | Cc1ccc(NC(=O)c2ccc(CN3CC[C@H](N(C)C)C3)c(C(F)(F)F)c2)cc1Nc1nccc(-c2cncnc2)n1 [Bafetinib] | 0 | 0
6 | O=C(NC[C@H](O)CN1CCc2ccccc2C1)c1cc(NC2COC2)ncn1 | 3.9 | 4.3
7 | Cn1cc(-c2ccc(F)c(C(F)(F)F)c2)nc1C1CCN(c2ncnc3[nH]ncc23)CC1 | 1.8 | 3.9
8 | CCC1=C[C@@H]2CN(C1)Cc1c([nH]c3ccccc13)[C@@](C(=O)OC)(c1cc3c(cc1OC)N(C)[C@H]1[C@@](O)(C(=O)OC)[C@H](OC(C)=O)[C@]4(CC)C=CCN5CC[C@]31[C@@H]54)C2 [Vinorelbine] | 23.2 | 19
9 | FC(F)c1nc2ccccc2n1-c1nc(N2CCOCC2)nc(N2CCOCC2)n1 [ZSTK474] | 14.9 | 15.6
10 | Cn1ncc(Cl)c1-c1cc(C(=O)N[C@H](CN)Cc2ccc(F)c(F)c2)oc1Cl [Uprosertib] | 7.6 | 11.2
11 | CNc1ncc2cc(-c3cc(NC(=O)NCCC(C)(C)C)c(F)cc3C)c(C)nc2n1 | 6.3 | 3.8
12 | Cn1c(=O)n(-c2ccc(C(C)(C)C#N)cc2)c2c3cc(-c4cnc5ccccc5c4)ccc3ncc21 [Dactolisib] | 16.3 | 18.3
13 | COc1cc(OC)c(/C=C/S(=O)(=O)Cc2ccc(OC)c(NCC(=O)O)c2)c(OC)c1 [Rigosertib] | 17.6 | 16.2
14 | O=C(O)CC1CC(c2ccccc2)=NO1 (centres undefined) [VGX-1027] | 0 | 0
15 | CNC(=O)[C@@H](NC(=O)[C@H](CC(C)C)[C@H](O)C(=O)NO)C(C)(C)C [Marimastat] | 1.1 | 0.8
16 | CN1CC[C@H](c2c(O)cc(O)c3c(=O)cc(-c4ccccc4Cl)oc23)[C@H](O)C1 [Alvocidib] | 14.5 | 16.2
17 | Cc1cc(Nc2cc(CN3CCOCC3)c3nc(C)c(Cc4ccc(Cl)cc4F)n3n2)n[nH]1 [Gandotinib] | 5 | 1.2
18 | COc1cc2c(Oc3ccc(NC(=O)C4(C(=O)Nc5ccc(F)cc5)CC4)cc3F)ccnc2cc1OCCCN1CCOCC1 [Foretinib] | 1.1 | 1.2
19 | CCCCCOC(=O)Nc1nc(=O)n([C@@H]2O[C@H](C)[C@@H](O)[C@H]2O)cc1F [Capecitabine] | 2.3 | 0.2

Row | Structure (SMILES) | drug sensitivity score (MDA-MB-453 [1]) | drug sensitivity score (MDA-MB-453 [2])
20 | CN[C@@H](C)C(=O)N[C@H](C(=O)N1CCC[C@H]1c1nc(C(=O)c2ccc(F)cc2)cs1)C1CCCCC1 [NVP-LCL161] | 8 | 8.1
21 | CNC(=O)CN1CCC(Oc2cc3c(Nc4cccc(Cl)c4F)ncnc3cc2OC)CC1 [Sapitinib] | 2.2 | 4.8
22 | CCc1c2c(nc3ccc(O)cc13)-c1cc3c(c(=O)n1C2)COC(=O)[C@]3(O)CC [SN-38] | 28.8 | 26.2
23 | CO[C@@H](C)Cn1c(=O)n(C)c2cnc3ccc(-c4cncc(C(C)(C)O)c4)cc3c21 | 15.3 | 15.3
24 | CC(=O)N(O)CCCCCNC(=O)CCC(=O)N(O)CCCCCNC(=O)CCC(=O)N(O)CCCCCN [Deferoxamine] | 2.3 | 4.3
25 | CON(C)C(=O)N1N=C(c2cc(F)ccc2F)S[C@@]1(CCCN)c1ccccc1 [Filanesib] | 16.7 | 15.3
26 | N#CC1(c2ccc(NC(=O)c3cccnc3NCc3ccncc3)cc2)CCCC1 [Apatinib] | 0.7 | 0
27 | Cc1c(F)cc(C(=O)NC2CC2)cc1-c1ccc(C(=O)NCC(C)(C)C)cn1 [Losmapimod] | 0.4 | 1.4
28 | CC(C)C[C@H](NC(=O)CNC(=O)c1cc(Cl)ccc1Cl)B(O)O [Ixazomib] | 9.4 | 7.4
29 | C[C@@H](Oc1cc(-c2cnn(C3CCNCC3)c2)cnc1N)c1c(Cl)ccc(F)c1Cl [Crizotinib] | 0 | 0
30 | CCC/C=C/C=C/C(=O)O[C@H]1/C(=C/C(=O)OC)C[C@H]2C[C@H]([C@@H](C)O)OC(=O)C[C@H](O)C[C@@H]3C[C@H](OC(C)=O)C(C)(C)[C@](O)(C[C@@H]4C/C(=C/C(=O)OC)C[C@H](/C=C/C(C)(C)[C@]1(O)O2)O4)O3 [Bryostatin 1] | 7.9 | 2.3
31 | COc1cc2c(Oc3ccc4[nH]c(C)cc4c3F)ncnc2cc1OCCCN1CCCC1 [Cediranib] | 0 | 0
32 | CNC(=O)c1cccc(-c2ccc3c(N4CCOC[C@@H]4C)nc(N4CCOC[C@@H]4C)nc3n2)c1 [Vistusertib] | 16.3 | 16.9
33 | CN1CCN(c2nc(C3=C(c4c[nH]c5ccccc45)C(=O)NC3=O)c3ccccc3n2)CC1 [Sotrastaurin] | 2.5 | 1
34 | Cc1ncc(-c2ccnc(Nc3ccc(S(C)(=O)=O)cc3)n2)n1C(C)C [AZD-5438] | 6.1 | 7.9
35 | NC(=O)NO [Hydroxyurea] | 2.3 | 1.6
36 | COc1ccc(COc2cc3oc(=O)c4cc(C(C)O)ccc4c3cc2OC)cc1 (centres undefined) [Palomid-529] | 2 | 0
37 | O=C(c1ccc(OCCN2CCCCC2)cc1)c1c(-c2ccc(O)cc2)sc2cc(O)ccc12 [Raloxifene] | 2.4 | 2.5
38 | CC(C)C(=O)Nc1ccc([N+](=O)[O-])c(C(F)(F)F)c1 [Flutamide] | 0 | 0

Row | Structure (SMILES) | drug sensitivity score (MDA-MB-453 [1]) | drug sensitivity score (MDA-MB-453 [2])
39 | CNC(=O)c1cc(Oc2ccc(NC(=O)Nc3ccc(Cl)c(C(F)(F)F)c3)cc2)ccn1 [Sorafenib] | 0 | 0
40 | CN1C(=O)N[C@H](Cc2c[nH]c3c(Cl)cccc23)C1=O [Necrostatin 2] | 0 | 0
41 | C[C@@H](Oc1ccc2[nH]nc(/C=C/c3cnn(CCO)c3)c2c1)c1c(Cl)cncc1Cl | 9 | 1.8
42 | O=C(c1cc(Cc2n[nH]c(=O)c3ccccc23)ccc1F)N1CCN(C(=O)C2CC2)CC1 [Olaparib] | 1.7 | 0.5
43 | CC(C)(C)c1nc(-c2cccc(NS(=O)(=O)c3c(F)cccc3F)c2F)c(-c2ccnc(N)n2)s1 [Dabrafenib] | 1.5 | 0.4
44 | CC[C@H](CC#N)OC(=O)N[C@@H](C)c1cccc(NC(=O)Nc2ccc(-c3cnco3)c(OC)c2)c1 [AVN944] | 7.1 | 3.2
45 | CC/C(=C(\c1ccc(O)cc1)c1ccc(OCCN(C)C)cc1)c1ccccc1 [4-hydroxytamoxifen] | 4.8 | 4.5
46 | CC(C)(C)Cn1c(N)nc2ccc(-c3[nH]c(C(C)(C)C)nc3-c3ccc(F)cc3)nc21 [Ralimetinib] | 1.8 | 0.8
47 | COc1ccc(-c2ccc3ncc4c(c3c2)n(-c2ccc(N3CCNCC3)c(C(F)(F)F)c2)c(=O)n4C)cn1 [NVP-BGT226] | 24.8 | 24.4
48 | CC(C)Cn1cnc2c(N)nc3ccccc3c21 [Imiquimod] | 0 | 0
49 | Cc1cccc(-c2nn3c(c2-c2ccnc4ccc(C(N)=O)cc24)CCC3)n1 [Galunisertib] | 0 | 0
50 | CC1(C)OCCn2c1nc1c(N3CCOCC3)nc(-c3cnc(N)nc3)nc12 [GDC-0084] | 16.4 | 17.4
51 | C[C@@H]1CN(CC(=O)Nc2ccc3c(c2)Cc2cccc(-c4cc(=O)cc(N5CCOCC5)o4)c2S3)C[C@H](C)O1 | 3.1 | 3.4
52 | Cc1ccc(=O)n(-c2ccccc2)c1 [Pirfenidone] | 0 | 0
53 | O=c1ncn2nc(Sc3ccc(F)cc3F)ccc2c1-c1c(Cl)cccc1Cl [Neflamapimod] | 0 | 0
54 | CC(=O)Nc1cccc(-n2c(=O)n(C3CC3)c(=O)c3c(Nc4ccc(I)cc4F)n(C)c(=O)c(C)c32)c1 [Trametinib] | 5.7 | 2.7
55 | CC(=O)Nc1ccc(C(=O)Nc2ccccc2N)cc1 [Tacedinaline] | 1.3 | 0.4
56 | CCc1c(C(=O)C(N)=O)c2c(OCC(=O)O)cccc2n1Cc1ccccc1 [Varespladib] | 0 | 0.8
57 | CN1CCN(C2CCC(n3cc(-c4ccc(Oc5ccccc5)cc4)c4c(N)ncnc43)CC2)CC1 (centres undefined) | 8.4 | 9.3
